Measurements from publication PMC6285983, “Novel broad spectrum virucidal molecules against enveloped viruses” (PLoS ONE, 2018).

Experiments:
[1] = test system: HSV-2 acyclovir resistant strain; assay: microbe, parasite or virus in culture; type: cell-based
HSV-2 [2] = assay: Binding assay (qPCR, immunostaining, IF); type: cell-based; details: 10 μM, HSV-2 MOI 10, 2 h on Vero cells at 4°C
Method: Since the observed irreversible effect can be exerted at different stages of viral infection, we investigated more in detail if compound 9d produced a physical disruption of the virus, thus preventing its attachment to the cells or a successive irreversible modification. We performed entry and binding assays, evaluating the amount of bound virus through immunostaining or qPCR. […] On the contrary, when entry assays were performed, it was possible to observe a reduction in the amount of virus associated to the cells (Fig 7D). […]
Cells were plated on coverslips and the following day the binding or entry protocol described above was applied. […] Rhodamine conjugated anti-rabbit (Santa Cruz) was then added on cells for 1 h at 37°C following 3 washes coverslips were mounted on microscope glasses and observed with Zeiss LSM510 fluorescence microscope (Zeiss, Oberkochen, Germany) and images were acquired.
Cells subjected to binding assays were then lysed and subjected to total DNA/RNA extraction and subsequently subjected to qPCR using as primers 5’- […] -3’ and 5’-[…] -3’ and as probe 5’-FAM […] -TAMRA for 40 cycles at 94°C for 15” followed by 60°C for 60”. The results were normalized according to values of rnasep and the % of bound virus were measured comparing the Δct of treated wells to wells treated with equal volume of solvent.

[3] = Cell viability MTS assay, conditions of the HPV-16 and Ad5 assays; type: cell-based; details: human, HeLa cells; conditions of HPV-16 assay
Method: Cell viability was measured using the MTS [3- (4,5-dimethylthiazol-2-yl)-5- (3 carboxy methoxy phenyl)-2-(4-sulfophenyl)-2H-tetrazolium] assay. Cell cultures were seeded in 96-well plates and were incubated with different concentrations of compounds in duplicate under the same experimental conditions described for the antiviral assays, (i.e. if the incubation time of the compound on cells was carried for 2 hours and then the evaluation of the antiviral activity was done 72h later, the same timing was used for the cytotoxicity assays, in order to exclude any toxicity effect in the antiviral evaluation). Cell viability was determined using the CellTiter 96 Proliferation Assay Kit (Promega, Madison, WI, USA) according to the manufacturer's instructions. Absorbances were measured using a Microplate Reader (Model 680, BIORAD) at 490 nm. The effect on cell viability at different concentrations of the compound was expressed as a percentage, by comparing absorbances of treated cells with those of cells incubated with culture medium and equal volumes of vehicle. […]
HeLa cells were plated in 96-well plates. […] The GFP-expressing infected cells were observed under an inverted Zeiss LSM510 fluorescence microscope (Zeiss, Oberkochen, Germany) and the percentages of infection were calculated by comparing GFP positive cells in treated and untreated wells.

HSV-2 [4] = assay: Time of addition: during infection, no preincubation; type: cell-based; details: Human alphaherpesvirus 2; during-infection assay, virus and compound added simultaneously
HSV-2 [5] = assay: Time of addition: pretreatment of cells before HSV-2 infection; type: cell-based; details: compound on cells 2 h before infection, then removed
Method: We performed assays aimed at better understanding the mechanism of action. In the pretreatment assay compound 9d was added on cells before the virus in order to determine if the antiviral activity was due to an interaction with the cells. Moreover, an assay was conducted adding virus and compound on cells without the preincubation performed in previous assays.
Fig 4 Time of addition assays. Compound 9d was added on cells 2 h before infection (PRE-TREATMENT CELLS) and subsequently the inocula were removed and cells were infected or compound and virus were added simultaneously on cells (DURING INFECTION) or after 1 h pre-incubation between the virus and the compound (PRE-TREATMENT VIRUS). Cells were fixed and stained 24 h later and plaques were counted.
Pretreatment: cells were pretreated for 2 h at 37°C with increasing concentrations of compounds, the inocula were then removed, cells washed and HSV-2 was added on cells for 2 h at 37°C. Subsequently the same protocol described above was followed.

IAV H1N1 = IAV H1N1 inhibition assay on MDCK cells; details: Influenza A virus
Method: MDCK cells were pre-plated in 96-well plates. The following day, increasing concentrations of compounds were mixed with IAV (MOI 0.05) and incubated for 1 h at 37°C. The mixtures were subsequently added to the cells for 1 h at 37°C, after a washout cells were overlaid with medium for 16 h at 37°C. Cells were then fixed and subjected to specific immunostaining using a Flu A monoclonal antibody (Merck 5001) in order to visualize infected cells. Percentages of infection were calculated by comparing numbers of infected cells in treated and untreated wells.

HSV-2 [6] = assay: HSV-2 plaquing efficiency assay, compound preincubated with virus 1 h at 37°C; type: cell-based; details: Human alphaherpesvirus 2, HSV-2, Vero cells, 1 h pre-incubation virus/compound
RSV = RSV inhibition assay on Hep-2 cells; type: cell-based, RSV strain A2; details: human respiratory syncytial virus
Method: HeP-2 cells were pre-plated in a 96-well plate. […] 72 h later cells were fixed and subjected to specific immunostaining using an RSV monoclonal antibody (Ab35958; Abcam, Cambridge, United Kingdom) in order to visualize syncytia.

ZIKV = ZIKV plaquing efficiency assay; type: cell-based, Zika virus (PRVABC59); details: Zika virus, ZIKAV

CC(C)c1ccc(CCN2C(=O)/C(=C/c3ccc(-c4ccc(C(=O)O)c(O)c4)o3)SC2=S)cc1 [Compound 9d, (Z)-2-hydroxy-4-(5-((3-(4-isopropylphenethyl)-4-oxo-2-thioxothiazolidin-5-ylidene)methyl)furan-2-yl)benzoic acid]
EC50 ([1]; Human alphaherpesvirus 2, read-out: EC50 (95% C.I.)): 1.6 nM
EC90 ([1]; Human alphaherpesvirus 2, read-out: EC90 (95% C.I.)): 24.3 nM
viral binding capability (HSV-2 [2]): not altering viral binding capability
CC50 at 72 h [3]: 94200 nM
EC50 (HSV-2 [4]): 147 nM
antiviral activity in pre-treatment assay (HSV-2 [5]): not active
EC50 (IAV H1N1; read-out: EC50 (95% C.I.)): 66.1 nM
EC90 (IAV H1N1; read-out: EC90 (95% C.I.)): 301 nM
EC50 (HSV-2 [6]; plaques at 24 h, read-out: EC50 (95% C.I.)): 6.55 nM
EC90 (HSV-2 [6]; read-out: EC90 (95% C.I.)): 40 nM
EC50 (RSV; read-out: EC50 (95% C.I.)): 54.8 nM
EC90 (RSV; read-out: EC90 (95% C.I.)): 221 nM
EC50 (ZIKV; read-out: EC50 (95% C.I.)): 69.9 nM
EC90 (ZIKV; read-out: EC90 (95% C.I.)): 147 nM
